Assay [1] concerns the target human RORγt ligand binding domain (RORγt LBD) (Homo sapiens (Human), UniProt P51449). The experiment in a line: RORγt ThermoFluor® assay (thermal shift binding). The settings on record: read-out: ThermoFluor® Assay, Kd. In a few lines: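 Binding was inferred from thermal stabilisation (ΔTm) of the E. coli-expressed RORγt LBD (0.065 mg/mL), monitored by 1,8-ANS (60 μM) emission at 500 nm during a 1 °C/min ramp. Buffer was Hepes 100 mM pH 7.0 with NaCl, GSH and Tween-20.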
For orientation: DSF heats the sample and reads unfolding from a dye or from intrinsic fluorescence.

A further assay deals with full-length human RORγt (Homo sapiens (Human), UniProt P51449). The assay is described as follows: RORγt (full-length human) reporter assay, Conditions B or C. Particulars: for RORγt (FL) Reporter Assay B or C, % inhibition (value marked *): marked *: footnote not given; for inhibition at 3 µM: at 3 μM compound concentration; for inhibition at 3 µM / inhibition at 1 µM: read-out: RORγt (FL) Reporter Assay B or C, % inhibition; for inhibition at 1 µM: at 1 μM compound concentration. The class given is cell-based. An outline of the steps: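 Readout is dual luciferase: firefly (GAL4-driven) normalized to DMSO-only and saturating-reference controls, then to CMV-Renilla. Full-length human RORγt fused to GAL4-DBD was transiently expressed in HEK293T; compound exposure ran overnight (16-20 h) starting 4-6 h after transfection, final FBS 1.3%, DMSO 0.1%.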
Chain of full-length human RORγt (P51449 other isoform, or with tags, fused parts or gaps): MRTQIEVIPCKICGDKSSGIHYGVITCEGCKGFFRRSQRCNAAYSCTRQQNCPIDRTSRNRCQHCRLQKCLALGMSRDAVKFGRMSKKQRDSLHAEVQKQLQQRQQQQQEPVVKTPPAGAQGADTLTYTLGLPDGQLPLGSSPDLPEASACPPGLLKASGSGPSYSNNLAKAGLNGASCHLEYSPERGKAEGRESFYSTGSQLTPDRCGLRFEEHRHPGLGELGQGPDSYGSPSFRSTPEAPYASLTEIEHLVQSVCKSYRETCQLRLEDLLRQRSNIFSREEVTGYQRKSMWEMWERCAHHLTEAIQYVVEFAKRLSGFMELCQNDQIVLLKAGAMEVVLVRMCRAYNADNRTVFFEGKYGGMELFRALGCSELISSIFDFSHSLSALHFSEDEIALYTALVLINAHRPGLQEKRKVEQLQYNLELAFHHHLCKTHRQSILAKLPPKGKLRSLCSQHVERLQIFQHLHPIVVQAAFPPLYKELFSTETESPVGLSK

Where [2] appears, read: Conditions B or C, read-out: RORγt (FL) Reporter Assay B or C, IC50.
The mark [3] stands for this setting: read-out: RORγt (FL) Reporter Assay B or C, IC50.

Where two headings read alike, the source gives them in different places.

Chain of human RORγt ligand binding domain (RORγt LBD) (P51449 other isoform, or with tags, fused parts or gaps): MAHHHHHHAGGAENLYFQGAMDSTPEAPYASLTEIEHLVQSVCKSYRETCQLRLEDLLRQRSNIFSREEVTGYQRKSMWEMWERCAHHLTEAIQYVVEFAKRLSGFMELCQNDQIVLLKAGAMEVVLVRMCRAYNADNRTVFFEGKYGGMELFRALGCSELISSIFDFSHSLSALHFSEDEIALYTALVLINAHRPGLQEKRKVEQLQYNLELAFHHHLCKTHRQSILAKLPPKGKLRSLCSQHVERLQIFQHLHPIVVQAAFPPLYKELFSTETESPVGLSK

On to `[2H]C([2H])([2H])C(O)(CNC(=O)c1nc(C(=O)N2CCC[C@@H]2C)c(-c2cnc(NC(C)(C)C)cc2C(F)(F)F)s1)C([2H])([2H])[2H]` [Example 180, (S)-5-(6-(tert-Butylamino)-4-(trifluoromethyl)pyridine-3-yl)-N-(2-hydroxy-2-(methyl-d3)propyl-3,3,3-d3)-4-(2-methylpyrrolidine-1-carbonyl)thiazole-2-carboxamide], for which, in assay [1], the Kd – broadly, a measure of binding affinity in units of concentration – came out at 0.0018 µM. In addition, the “RORγt (FL) Reporter Assay B or C, % inhibition (value marked *)” value (from here on “RORγt … % inhibition (value marked *)”) on full-length human RORγt (Conditions B or C) is on record as 113* %. For the same molecule, the IC50 – broadly, the concentration that inhibits the measured activity by half – on full-length human RORγt (setting [2]) came to 0.02 µM.

In the case of `C[C@H]1CCCN1C(=O)c1nc(C(=O)N2C[C@@H]3C[C@H]2CO3)sc1-c1cnc(NC(C)(C)C)cc1C(F)(F)F` [Example 360, [5-[6-(tert-Butylamino)-4-(trifluoromethyl)-3-pyridyl]-2-[(1S,4S)-2-oxa-5-azabicyclo[2.2.1]heptane-5-carbonyl]thiazol-4-yl]-[(2S)-2-methylpyrrolidin-1-yl]methanone], in assay [1], the Kd worked out at 0.01 µM. In addition, the inhibition (commonly the relative decrease from the control value, in per cent) at 3 µM on full-length human RORγt is 106%. For the same molecule, the IC50 on full-length human RORγt (setting [3]) was 0.082 µM.

As for `CC[C@H](Nc1cc(C(F)(F)F)c(-c2sc(C(=O)NCC(C)(C)O)nc2C(=O)N2CCCC[C@@H]2C)cn1)C(F)(F)F` [Example 112, N-(2-Hydroxy-2-methylpropyl)-4-((S)-2-methylpiperidine-1-carbonyl)-5-(6-(((S)-1,1,1-trifluorobutan-2-yl)amino)-4-(trifluoromethyl)pyridin-3-yl)thiazole-2-carboxamide], in assay [1], the Kd worked out at 0.0002 µM. Besides, the “RORγt … % inhibition (value marked *)” value at full-length human RORγt (Conditions B or C) is reported as 110* %. In addition, on full-length human RORγt (setting [2]), the IC50 came to 0.013 µM.

For `C[C@H]1CCCN1C(=O)c1nc(C(=O)NCC(O)C(F)(F)F)sc1-c1cnc(NC(C)(C)C)cc1C(F)(F)F` (stereo in doubt) [Example 352, 5-[6-(tert-Butylamino)-4-(trifluoromethyl)-3-pyridyl]-4-(2-methylpyrrolidine-1-carbonyl)-N-(3,3,3-trifluoro-2-hydroxy-propyl)thiazole-2-carboxamide], in assay [1], the Kd is 0.0011 µM. The inhibition at 3 µM on full-length human RORγt turned out to be 103%. On full-length human RORγt (setting [3]), the 50% inhibitory concentration (IC50) amounted to 0.042 µM.

Take `CC(C)(C)Nc1cc(C(F)F)c(-c2sc(C(=O)N[C@H]3CCC[C@@H]3O)nc2C(=O)N2C3CCC2CC3)cn1` [Example 440, 4-((1s,4s)-7-Azabicyclo[2.2.1]heptane-7-carbonyl)-5-[6-(tert-butylamino)-4-(difluoromethyl)-3-pyridyl]-N-[(1S,2S)-2-hydroxycyclopentyl]thiazole-2-carboxamide]: the Kd in assay [1] stood at 0.00072 µM. In addition, the IC50 against full-length human RORγt (RORγt (FL) Reporter Assay B or C, IC50) amounted to 0.031 µM. Also, at full-length human RORγt, the inhibition at 3 µM is 104%.

`C[C@H](O)[C@@H](C)NC(=O)c1nc(C(=O)N2CCC[C@@H]2C)c(-c2cnc(NC(C)(C)C)cc2C(F)(F)F)s1` (relative stereo) [Example 235, 5-(6-(tert-Butylamino)-4-(trifluoromethyl)pyridin-3-yl)-N-((2R*,3S*)-3-hydroxybutan-2-yl)-4-((S)-2-methylpyrrolidine-1-carbonyl)thiazole-2-carboxamide]: the Kd in assay [1] turned out to be 0.0012 µM. Further, at full-length human RORγt (Conditions B or C), the “RORγt … % inhibition (value marked *)” value is 106* %. Besides, the IC50 at full-length human RORγt (setting [2]) worked out at 0.034 µM.

Consider `C[C@H]1CCCN1C(=O)c1nc(C(=O)NCC(C)(C)O)sc1-c1cnc(NC(C)(C)C2CC2)cc1C(F)(F)F` [Example 56, (S)-5-(6-((2-Cyclopropylpropan-2-yl)amino)-4-(trifluoromethyl)pyridin-3-yl)-N-(2-hydroxy-2-methylpropyl)-4-(2-methylpyrrolidine-1-carbonyl)thiazole-2-carboxamide], for which, in assay [1], the Kd came to 0.00034 µM. Moreover, the “RORγt … % inhibition (value marked *)” value at full-length human RORγt (Conditions B or C) is listed as 106* %. Moreover, at full-length human RORγt (setting [2]), the IC50 was 0.0036 µM.

For `CC[C@H](Nc1cc(C(F)F)c(-c2sc(C(=O)N3CCOCC3)nc2C(=O)N2CCC[C@@H]2C)cn1)C(F)(F)F` [Example 395, [5-[4-(Difluoromethyl)-6-[[(1S)-1-(trifluoromethyl)propyl]amino]-3-pyridyl]-2-(morpholine-4-carbonyl)thiazol-4-yl]-[(2S)-2-methylpyrrolidin-1-yl]methanone], in assay [1], the Kd worked out at 0.04 µM. At full-length human RORγt, the inhibition at 3 µM worked out at 103%. The IC50 at full-length human RORγt (setting [3]) came out at 0.034 µM.

Regarding `C[C@H](CO)NC(=O)c1nc(C(=O)N2CCC[C@@H]2C)c(-c2cnc(N[C@@H](C)C(F)(F)F)cc2C(F)F)s1` [Example 284, 5-(4-(Difluoromethyl)-6-(((S)-1,1,1-trifluoropropan-2-yl)amino)pyridin-3-yl)-N—((R)-1-hydroxypropan-2-yl)-4-((S)-2-methylpyrrolidine-1-carbonyl)thiazole-2-carboxamide], the Kd in assay [1] stood at 0.0081 µM. In addition, the inhibition at 3 µM at full-length human RORγt is 111%. Also, on full-length human RORγt (setting [3]), the IC50 amounted to 0.11 µM.

For `C[C@H](Nc1cc(C(F)F)c(-c2sc(C(=O)N[C@H]3C[C@H](O)C3)nc2C(=O)N2CC(F)(F)C[C@@H]2C)cn1)C(F)(F)F` [Example 191, 4-((S)-4,4-Difluoro-2-methylpyrrolidine-1-carbonyl)-5-(4-(difluoromethyl)-6-(((S)-1,1,1-trifluoropropan-2-yl)amino)pyridine-3-yl)-N-((1r,3S)-3-hydroxycyclobutyl)thiazole-2-carboxamide], the Kd in assay [1] came to 0.018 µM. Further, the “RORγt … % inhibition (value marked *)” value at full-length human RORγt (Conditions B or C) is on record as 98* %. Further, the IC50 on full-length human RORγt (setting [2]) stood at 0.032 µM.

`CCNC(=O)c1nc(C(=O)N2CCC[C@@H]2C)c(-c2cnc(NC(C)(C)C)cc2C(F)(F)F)s1` [Example 309, (S)-5-(6-(tert-Butylamino)-4-(trifluoromethyl)pyridin-3-yl)-N-ethyl-4-(2-methylpyrrolidine-1-carbonyl)thiazole-2-carboxamide]: in assay [1], the Kd came out at 0.016 µM. Moreover, the inhibition at 3 µM at full-length human RORγt came to 95%. For the same molecule, on full-length human RORγt (setting [3]), the IC50 was found to be 0.013 µM.

Regarding `C[C@H](Nc1cc(C(F)(F)F)c(-c2sc(C(=O)N[C@H](C)C(C)(C)O)nc2C(=O)N2CC(F)(F)C[C@@H]2C)cn1)C1CC1` [Example 203, 5-(6-(((S)-1-Cyclopropylethyl)amino)-4-(trifluoromethyl)pyridine-3-yl)-4-((S)-4,4-difluoro-2-methylpyrrolidine-1-carbonyl)-N—((R)-3-hydroxy-3-methylbutan-2-yl)thiazole-2-carboxamide], the Kd in assay [1] is 0.0015 µM. The “RORγt … % inhibition (value marked *)” value on full-length human RORγt (Conditions B or C) was 97* %. Also, at full-length human RORγt (setting [2]), the IC50 was found to be 0.042 µM.

With `C[C@H](NC(=O)c1nc(C(=O)N2CC(F)(F)C[C@@H]2C)c(-c2cnc(NC3(C)CCC3)cc2C(F)F)s1)C(C)(C)O` [Example 326, 4-((S)-4,4-Difluoro-2-methylpyrrolidine-1-carbonyl)-5-(4-(difluoromethyl)-6-((1-methylcyclobutyl)amino)pyridin-3-yl)-N—((S)-3-hydroxy-3-methylbutan-2-yl)thiazole-2-carboxamide], the Kd in assay [1] is 0.00071 µM. In addition, the inhibition at 3 µM on full-length human RORγt turned out to be 90%. The IC50 at full-length human RORγt (setting [3]) was 0.097 µM.

As for `C[C@H](Nc1cc(C(F)F)c(-c2sc(C(=O)N[C@@H]3CC[C@@H](O)C3)nc2C(=O)N2C3CCC2CC3)cn1)C(F)(F)F` [Example 438, 4-((1s,4s)-7-Azabicyclo[2.2.1]heptane-7-carbonyl)-5-[4-(difluoromethyl)-6-[[(1S)-2,2,2-trifluoro-1-methyl-ethyl]amino]-3-pyridyl]-N-[(1R,3R)-3-hydroxycyclopentyl]thiazole-2-carboxamide], in assay [1], the Kd was determined as 0.004 µM. Besides, on full-length human RORγt, the inhibition at 1 µM worked out at 99%. Further, the IC50 on full-length human RORγt (setting [3]) is 0.083 µM.

Regarding `O=C(N[C@@H]1CC[C@H]1O)c1nc(C(=O)N2C3CCC2CC3)c(-c2cnc(N[C@@H](C3CC3)C(F)(F)F)cc2C(F)F)s1` (relative stereo) [Example 443, 4-((1s,4s)-7-Azabicyclo[2.2.1]heptane-7-carbonyl)-5-(6-(((S)-1-cyclopropyl-2,2,2-trifluoroethyl)amino)-4-(difluoromethyl)pyridin-3-yl)-N-((1R*,2R*)-2-hydroxycyclobutyl)thiazole-2-carboxamide], in assay [1], the Kd was determined as 0.0022 µM. Moreover, the inhibition at 3 µM at full-length human RORγt turned out to be 107%. Besides, the IC50 at full-length human RORγt (setting [3]) was found to be 0.016 µM.

On to `C[C@H]1CCCN1C(=O)c1nc(C(=O)N[C@H]2C[C@H](O)C2)sc1-c1cnc(N[C@@H](C2CC2)C(F)(F)F)cc1C(F)F` [Example 310, 5-(6-(((S)-1-Cyclopropyl-2,2,2-trifluoroethyl)amino)-4-(difluoromethyl)pyridin-3-yl)-N-((1r,3S)-3-hydroxycyclobutyl)-4-((S)-2-methylpyrrolidine-1-carbonyl)thiazole-2-carboxamide], for which the Kd in assay [1] came to 0.0087 µM. Besides, at full-length human RORγt, the inhibition at 3 µM amounted to 92%. Besides, at full-length human RORγt (setting [3]), the IC50 was determined as 0.036 µM.

For the molecule `O=C(NC1CCS(=O)(=O)CC1)c1nc(C(=O)N2C3CCC2CC3)c(-c2cnc(N[C@@H](C3CC3)C(F)(F)F)cc2C(F)F)s1` [Example 436, 4-((1s,4s)-7-Azabicyclo[2.2.1]heptane-7-carbonyl)-5-[6-[[(1S)-1-cyclopropyl-2,2,2-trifluoro-ethyl]amino]-4-(difluoromethyl)-3-pyridyl]-N-(1,1-dioxothian-4-yl)thiazole-2-carboxamide], in assay [1], the Kd turned out to be 0.001 µM. For the same molecule, the inhibition at 1 µM on full-length human RORγt was found to be 117%. For the same molecule, at full-length human RORγt (setting [3]), the IC50 is 0.048 µM.
